Where “and” joins values, the source holds several entries; their conditions need not be identical. Equal entries are not always repeated. Where two headings read alike, the source gives them in different places.
Experiments:
[1] = target: T1, TcFPPS (T. cruzi farnesyl pyrophosphate synthase) (Trypanosoma cruzi, UniProt Q8WS26); assay: TcFPPS enzymatic activity inhibition; assay type: biochemical
T1 sequence (Q8WS26 1-425): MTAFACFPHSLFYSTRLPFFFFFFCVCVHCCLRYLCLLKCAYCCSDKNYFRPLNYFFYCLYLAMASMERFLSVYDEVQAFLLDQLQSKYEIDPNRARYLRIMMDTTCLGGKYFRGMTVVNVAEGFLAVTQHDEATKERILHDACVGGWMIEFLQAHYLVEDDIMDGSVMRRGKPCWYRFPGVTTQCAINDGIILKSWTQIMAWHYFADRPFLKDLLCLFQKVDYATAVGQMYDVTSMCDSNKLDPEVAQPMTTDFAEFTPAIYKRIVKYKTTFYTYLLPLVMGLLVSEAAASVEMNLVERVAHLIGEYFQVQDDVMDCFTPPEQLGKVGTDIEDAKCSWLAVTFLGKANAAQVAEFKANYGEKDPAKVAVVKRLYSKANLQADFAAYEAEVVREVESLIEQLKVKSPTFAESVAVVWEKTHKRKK

T. gondii tachyzoites [2] = assay: T. gondii tachyzoites assays; assay type: cell-based, Toxoplasma gondii
T. cruzi amastigotes [3] = assay: T. cruzi amastigote assays; assay type: cell-based, Trypanosoma cruzi
T. cruzi amastigotes [4] = details: cited from earlier work
T. gondii tachyzoites [5] = details: positive control; cited from earlier work
[6] = target: T1, TcFPPS (T. cruzi farnesyl pyrophosphate synthase); details: cited from earlier work

With `CCCCCCCCCCNCC(O)(P(=O)(O)O)P(=O)(O)O` [Compound 31, 1-[(n-Decylamino)ethyl]-1-hydroxy-1,1-bisphosphonic Acid] the IC50 [1] was greater than 10 µM and the “T. gondii tachyzoites, % at 10 μM (printed in the ED50 column)” value (T. gondii tachyzoites [2]) was 14.9% at 10 μM.

For `CCCCCCCNCC(O)(P(=O)(O)O)P(=O)(O)O` [Compound 29, 1-[(n-Heptylamino)ethyl]-1-hydroxy-1,1-bisphosphonic Acid], the “ED50 T. cruzi amastigotes” value (T. cruzi amastigotes [3]) was greater than 20 µM and the “T. gondii tachyzoites, % at 10 μM (printed in the ED50 column)” value (T. gondii tachyzoites [2]) was 0.00% at 10 μM.

With `CCCCCNCC(O)(P(=O)(O)O)P(=O)(O)O` [Compound 27, 1-[(n-Pentylamino)ethyl]-1-hydroxy-1,1-bisphosphonic Acid] the IC50 [1] was greater than 10 µM, the “ED50 T. cruzi amastigotes” value (T. cruzi amastigotes [3]) was greater than 20 µM and the “ED50 T. gondii tachyzoites” value (T. gondii tachyzoites [2]) was greater than 10 µM.

With `CCCCCCCCNCC(O)(P(=O)(O)O)P(=O)(O)O` [Compound 30, 1-[(n-Octylamino)ethyl]-1-hydroxy-1,1-bisphosphonic Acid] the “ED50 T. gondii tachyzoites” value (T. gondii tachyzoites [2]) was 2.0 µM and 2.00 ± 0.95 µM.

In the case of `O=P(O)(O)C(O)(Cc1cccnc1)P(=O)(O)O` [Risedronate, risedronate], the “ED50 T. cruzi amastigotes” value (T. cruzi amastigotes [4]) is given as 55.0 ± 5.0[53] μM and the “ED50 T. gondii tachyzoites” value (T. gondii tachyzoites [5]) is given as 2.4 μM and 2.4 ± 0.7[24] μM.

In the case of `CCCCCCCCCC(F)(P(=O)(O)O)P(=O)(O)O` [Compound 11], the “activity against TcFPPS” value [6] is given as “devoid” and the “cellular activity against T. cruzi” value (T. cruzi amastigotes [4]) is given as “devoid of cellular activity”.

In the case of `CCCCCCNCC(O)(P(=O)(O)O)P(=O)(O)O` [Compound 28, 1-[(n-Hexylamino)ethyl]-1-hydroxy-1,1-bisphosphonic Acid], the IC50 [1] is reported as greater than 10 µM, the “ED50 T. cruzi amastigotes” value (T. cruzi amastigotes [3]) is reported as greater than 20 µM and the “ED50 T. gondii tachyzoites” value (T. gondii tachyzoites [2]) is reported as 4.7 µM and 4.68 ± 1.19 µM.

In the case of `CCCCCCNCC(P(=O)(O)O)P(=O)(O)O` [Compound 12], the “ED50 against T. cruzi (amastigotes)” value (T. cruzi amastigotes [4]) is listed as 0.84 µM.

In the case of `O=C(Cn1ccnc1[N+](=O)[O-])NCc1ccccc1` [Benznidazole, reference compound], the “ED50 T. cruzi amastigotes” value (T. cruzi amastigotes [3]) is listed as 1.44 ± 0.97 µM and the “ED50 intracellular T. cruzi proliferation” value (T. cruzi amastigotes [4]) is listed as 2.77 µM.

For `CCCCCCCCC(F)(P(=O)(O)O)P(=O)(O)O` [Compound 10], the “activity against TcFPPS” value [6] is listed as “devoid” and the “cellular activity against T. cruzi” value (T. cruzi amastigotes [4]) is listed as “devoid of cellular activity”.

For `CCCCCCCCCCCCNCC(P(=O)(O)O)P(=O)(O)O` [Compound 14], the “ED50 intracellular T. cruzi proliferation” value (T. cruzi amastigotes [4]) is listed as 0.67 µM.

From PMC3902031 (Bioorganic & medicinal chemistry, 2013)
